Laboratory results taken from PubChem BioAssay AID1845217 (Molecular Pharmacology Branch, DTP, NCI, 2023).

Tested on: VA-ES-BJ tumor spheroid viability
Test: Anticancer human tumor VA-ES-BJ cell line growth inhibition;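 note: spheroids exposed to compounds for seven days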;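 for viability, T/C: percent of DMSO vehicle control viability so 100% = untreated growth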
Settings: spheroids with HUVEC and MSC; for IC50: curve of first compound; for viability, T/C: stronger effect = lower value
Description: Multicellular complex tumor spheroid response to DNA repair inhibitors in combination with DNA-damaging drugs
This study explores the anticancer activities of DNA-damaging drugs and inhibitors of DNA damage repair, both as single agents and in combinations. Complex tumor spheroids comprised of malignant cells, endothelial cells and mesenchymal stem cells served as an in vitro model for human solid tumors. This model system incorporates physiologically relevant features and patient-derived or established malignant cell lines with clinically relevant genetic alterations from many tumor types. Twenty-six patient-derived or established malignant cell lines were evaluated representing sarcoma, melanoma, small cell lung cancer (SCLC), non-small cell lung cancer (NSCLC), as well as bladder, ovarian and pancreatic cancers. The concentration ranges selected for each drug and investigational agent were based upon clinically achievable concentrations if the clinical Cmax of the agent was known.
Compounds. The drugs and compounds olaparib (NSC753686), talazoparib (NSC767125), berzosertib (NSC777718), elimusertib (NSC800525), nedisertib (NSC802822), VX-984 (NSC792969), AZD-1390 (NSC803789), temozolomide (NSC362856), topotecan (NSC609699), trabectedin (NSC813783), staurosporine (NSC755774), and gemcitabine (NSC613327) were obtained from the National Cancer Institute (NCI) Developmental Therapeutics Program Chemical Repository. The FDA-approved anticancer drug set is available from the Developmental Therapeutics Program at https://dtp.cancer.gov/organization/dscb/obtaining/available_plates.htm. […] The stock solutions were prepared in dimethyl sulfoxide (DMSO, Sigma-Aldrich, St. Louis, MO, cat. D2650) at 400-fold the tested concentration and stored at -70 degrees C. Prior to their use, the stock solutions were diluted in fresh medium and the final DMSO concentration in the assay was 0.25% (v/v). All drugs and investigational agents were tested over a range starting from a high concentration at or near the clinical Cmax and decreasing in half-log increments. If the clinical Cmax for an agent had not been determined, the highest concentration tested was 10 microM.
Cell Lines. The patient-derived cancer cell (PDC) lines: 156681-154-R-J1-PDC, 283228-195-R-J1-PDC, 287954-098-R-J1-PDC, 292921-168-R-J2-PDC, 349418-098-R-PDC, 425362-245-T-J1-PDC, 556581-035-R-J1-PDC, and BL0293-F563-PDC were received from the NCI Patient-Derived Models Repository (PDMR, https://pdmr.cancer.gov). The established cell lines HS-SY-2 (RRID:CVCL_8719), MPNST, and SYO-1 (RRID:CVCL_7146) were obtained from the Sloan Kettering Institute. The alveolar soft parts sarcoma cell line ASPS-1 (RRID:CVCL_S738) was established at the NCI and grown from internal seed stocks. The following established cell lines were purchased from the American Type Culture Collection (ATCC, Manassas, VA): G-401 (ATCC, cat. CRL-1441, RRID:CVCL_0270), SW982 (ATCC, cat. HTB-93, RRID:CVCL_1734), VA-ES-BJ (ATCC, cat. CRL-2138, RRID:CVCL_1785), NCI-H719 (ATCC, cat. CRL-5837, RRID:CVCL_1582), NCI-H196 (ATCC, cat. CRL-5823, RRID:CVCL_1509), NCI-H841 (ATCC, cat. CRL-5845, RRID:CVCL_1595), NCI-H1618 (ATCC, cat. CRL-5879, RRID:CVCL_1480), NCI-H1876 (ATCC, cat. CRL-5902, RRID:CVCL_1503), DMS 114 (ATCC, cat. CRL-2066; RRID:CVCL_1174), NCI-H211 (ATCC, cat. CRL-5824; RRID:CVCL_1529), and SW 1271 (ATCC, cat. CRL-2177, RRID:CVCL_1716). The small cell lung cancer cell line COR-L88 was purchased from Sigma-Aldrich (cat. 92031917-1VL, RRID:CVCL_1141). The non-small cell lung cancer cell lines NCI-H226 (RRID:CVCL_1544) and NCI-H322M (RRID:CVCL_1557) were established at the NCI and grown from internal seed stocks. Pooled donor human umbilical vein endothelial cells (HUVEC, Lonza, cat. CC-2519) and human mesenchymal stem cells (hMSC, Lonza, cat. PT-2501) were purchased from Lonza (Walkersville, MD).
Cell Culture. All cells were maintained in an incubator at 37 degrees C and 5% CO2 with 95% humidity. […]

SMILES: Cc1sc2c(c1C)C(c1ccc(Cl)cc1)=NC(CC(=O)Nc1ccc(O)cc1)c1nnc(C)n1-2 (stereo not given) + CC[C@@]1(O)C(=O)OCc2c1cc1n(c2=O)Cc2cc3c(CN(C)C)c(O)ccc3nc2-1
- IC50 (second compound 0.003 µM): 0.101 µM
- IC50 (second compound 0.00949 µM): 0.0454 µM
- IC50 (second compound 0.03 µM): < 0.00949 µM
- IC50 (second compound 0.0949 µM): < 0.00949 µM
- IC50 (second compound 0.3 µM): < 0.00949 µM
- viability, T/C (second compound 0.003 µM, first compound 0.00949 µM): 78.5%
- viability, T/C (second compound 0.003 µM, first compound 0.03 µM): 75.2%
- viability, T/C (second compound 0.003 µM, first compound 0.0949 µM): 47%
- viability, T/C (second compound 0.003 µM, first compound 0.3 µM): 34.7%
- viability, T/C (second compound 0.003 µM, first compound 0.949 µM): 23.3%
- viability, T/C (second compound 0.003 µM, first compound 3 µM): 19%
- viability, T/C (second compound 0.00949 µM, first compound 0.00949 µM): 66.1%
- viability, T/C (second compound 0.00949 µM, first compound 0.03 µM): 55.6%
- viability, T/C (second compound 0.00949 µM, first compound 0.0949 µM): 40.1%
- viability, T/C (second compound 0.00949 µM, first compound 0.3 µM): 28.6%
- viability, T/C (second compound 0.00949 µM, first compound 0.949 µM): 18.4%
- viability, T/C (second compound 0.00949 µM, first compound 3 µM): 13.5%
- viability, T/C (second compound 0.03 µM, first compound 0.00949 µM): 30.7%
- viability, T/C (second compound 0.03 µM, first compound 0.03 µM): 33.7%
- viability, T/C (second compound 0.03 µM, first compound 0.0949 µM): 23.1%
- viability, T/C (second compound 0.03 µM, first compound 0.3 µM): 13.3%
- viability, T/C (second compound 0.03 µM, first compound 0.949 µM): 5.6%
- viability, T/C (second compound 0.03 µM, first compound 3 µM): 5.34%
- viability, T/C (second compound 0.0949 µM, first compound 0.00949 µM): 5.99%
- viability, T/C (second compound 0.0949 µM, first compound 0.03 µM): 5.36%
- viability, T/C (second compound 0.0949 µM, first compound 0.0949 µM): 5.41%
- viability, T/C (second compound 0.0949 µM, first compound 0.3 µM): 4.64%
- viability, T/C (second compound 0.0949 µM, first compound 0.949 µM): 4.96%
- viability, T/C (second compound 0.0949 µM, first compound 3 µM): 3.57%
- viability, T/C (second compound 0.3 µM, first compound 0.00949 µM): 5.26%
- viability, T/C (second compound 0.3 µM, first compound 0.03 µM): 5.21%
- viability, T/C (second compound 0.3 µM, first compound 0.0949 µM): 4.85%
- viability, T/C (second compound 0.3 µM, first compound 0.3 µM): 4.65%
- viability, T/C (second compound 0.3 µM, first compound 0.949 µM): 4.55%
- viability, T/C (second compound 0.3 µM, first compound 3 µM): 3.36%
